Test results published in ChEMBL document CHEMBL1139385, “Structural analysis of ARC-type inhibitor (ARC-1034) binding to protein kinase A catalytic subunit and rational design of bisubstrate analogue inhibitors of basophilic protein kinases” (J Med Chem, 2009).

How the values were obtained:
[1] = target: T1, cAMP-dependent protein kinase catalytic subunit alpha (Homo sapiens, UniProt P17612); test: Inhibition of PKA catalytic subunit alpha using 100 uM ATP and 30 uM TAMRA-kemptide substrate by fluorometric TLC assay
[2] = target: RAC-gamma serine/threonine-protein kinase (Homo sapiens, UniProt Q9Y243); test: Inhibition of PKBgamma using 100 uM ATP and 30 uM TAMRA-kemptide substrate by fluorometric TLC assay
Sequence of RAC-gamma serine/threonine-protein kinase (Q9Y243 whole entry): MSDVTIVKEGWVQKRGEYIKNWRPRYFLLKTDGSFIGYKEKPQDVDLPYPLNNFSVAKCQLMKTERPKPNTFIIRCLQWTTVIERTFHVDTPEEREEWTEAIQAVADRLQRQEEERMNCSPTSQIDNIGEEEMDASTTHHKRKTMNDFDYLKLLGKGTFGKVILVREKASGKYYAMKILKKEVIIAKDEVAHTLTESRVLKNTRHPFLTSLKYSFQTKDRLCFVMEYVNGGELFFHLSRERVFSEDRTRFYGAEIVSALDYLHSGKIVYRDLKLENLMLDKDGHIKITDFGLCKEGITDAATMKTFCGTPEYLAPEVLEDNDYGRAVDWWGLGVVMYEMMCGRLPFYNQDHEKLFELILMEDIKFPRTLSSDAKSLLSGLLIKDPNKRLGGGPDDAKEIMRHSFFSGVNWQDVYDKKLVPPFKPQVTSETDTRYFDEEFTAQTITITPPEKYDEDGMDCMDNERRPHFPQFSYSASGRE

[3] = target: T1, cAMP-dependent protein kinase catalytic subunit alpha; test: Binding affinity to PKA catalytic subunit alpha by fluorescence polarization assay
[4] = target: Rho-associated protein kinase 2 (Bos taurus) (UniProt Q28021); test: Binding affinity to ROCK2 by fluorescence polarization assay
Sequence of Rho-associated protein kinase 2 (Bos taurus) (Q28021 whole entry, looked up): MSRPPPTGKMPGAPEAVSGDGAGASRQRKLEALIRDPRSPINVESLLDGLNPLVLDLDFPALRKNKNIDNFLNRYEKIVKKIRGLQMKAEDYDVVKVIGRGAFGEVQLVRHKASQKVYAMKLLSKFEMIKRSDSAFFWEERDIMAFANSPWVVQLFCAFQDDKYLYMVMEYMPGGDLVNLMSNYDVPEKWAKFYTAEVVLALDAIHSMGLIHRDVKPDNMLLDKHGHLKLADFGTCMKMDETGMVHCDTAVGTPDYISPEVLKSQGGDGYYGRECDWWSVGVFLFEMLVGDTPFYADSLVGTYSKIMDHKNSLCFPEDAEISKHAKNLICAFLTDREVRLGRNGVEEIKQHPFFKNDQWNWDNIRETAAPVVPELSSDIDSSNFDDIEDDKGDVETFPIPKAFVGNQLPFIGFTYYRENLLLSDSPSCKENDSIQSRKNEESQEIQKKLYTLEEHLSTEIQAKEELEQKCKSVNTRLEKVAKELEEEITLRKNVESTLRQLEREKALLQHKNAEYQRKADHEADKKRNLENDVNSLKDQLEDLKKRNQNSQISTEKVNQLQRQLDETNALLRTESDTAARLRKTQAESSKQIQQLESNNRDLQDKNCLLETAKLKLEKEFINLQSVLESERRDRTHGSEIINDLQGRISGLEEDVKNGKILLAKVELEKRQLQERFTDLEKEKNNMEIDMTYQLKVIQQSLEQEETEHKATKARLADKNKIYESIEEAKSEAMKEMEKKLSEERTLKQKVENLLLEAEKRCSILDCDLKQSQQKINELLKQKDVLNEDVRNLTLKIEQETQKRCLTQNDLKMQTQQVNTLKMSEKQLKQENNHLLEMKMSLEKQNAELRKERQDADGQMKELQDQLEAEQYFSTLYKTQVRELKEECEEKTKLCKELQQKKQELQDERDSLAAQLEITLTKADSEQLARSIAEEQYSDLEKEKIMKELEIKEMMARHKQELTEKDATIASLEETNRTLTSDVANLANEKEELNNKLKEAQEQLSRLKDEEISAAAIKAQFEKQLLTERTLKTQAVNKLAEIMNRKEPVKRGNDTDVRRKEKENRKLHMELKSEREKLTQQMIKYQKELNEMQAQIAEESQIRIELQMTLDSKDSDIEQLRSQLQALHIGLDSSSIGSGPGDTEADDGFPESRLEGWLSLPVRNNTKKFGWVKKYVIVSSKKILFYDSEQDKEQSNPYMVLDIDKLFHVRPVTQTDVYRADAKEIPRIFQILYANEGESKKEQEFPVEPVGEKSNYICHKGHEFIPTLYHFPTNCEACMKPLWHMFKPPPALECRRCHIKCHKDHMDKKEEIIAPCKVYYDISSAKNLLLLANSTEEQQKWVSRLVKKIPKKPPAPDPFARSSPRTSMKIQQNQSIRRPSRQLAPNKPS

IC50 [1] [µM] | IC50 [2] [µM] | Kd [4] [µM] | Structure (SMILES) | Kd [3] [µM]
0.054 | 0.774 | 0.0014 | NCCCC[C@@H](NC(=O)CCCCCNC(=O)[C@H]1O[C@@H](n2cnc3c(N)ncnc32)[C@H](O)[C@@H]1O)C(=O)NCCCCCC(=O)N[C@H](CCCN=C(N)N)C(=O)N[C@H](CCCN=C(N)N)C(N)=O | 0.0076
– | – | – | NCCCC[C@H](NC(=O)CCCCCNC(=O)[C@H]1O[C@@H](n2cnc3c(N)ncnc32)[C@H](O)[C@@H]1O)C(=O)NCCCCCC(=O)N[C@H](CCCN=C(N)N)C(=O)N[C@H](CCCN=C(N)N)C(N)=O | 0.594
– | – | – | NC(=O)[C@@H](CCCN=C(N)N)NC(=O)[C@@H](CCCN=C(N)N)NC(=O)CCCCCNC(=O)CCCCCNC(=O)[C@H]1O[C@@H](n2cnc3c(N)ncnc32)[C@H](O)[C@@H]1O | 0.083
– | – | – | NC(=O)[C@H](Cc1ccc(C(=O)c2ccccc2)cc1)NC(=O)CCCCCNC(=O)[C@H]1O[C@@H](n2cnc3c(N)ncnc32)[C@H](O)[C@@H]1O | > 100
– | – | – | NC(=O)[C@@H](Cc1ccc(C(=O)c2ccccc2)cc1)NC(=O)CCCCCNC(=O)[C@H]1O[C@@H](n2cnc3c(N)ncnc32)[C@H](O)[C@@H]1O | 1.96
– | – | – | N=C(N)NCCC[C@@H](NC(=O)[C@@H](CCCNC(=N)N)NC(=O)CCCNC(=O)CCCCCNC(=O)[C@H]1O[C@@H](n2cnc3c(N)ncnc32)[C@H](O)[C@@H]1O)C(N)=O | 0.247
– | – | – | N=C(N)NCCC[C@@H](NC(=O)[C@@H](CCCNC(=N)N)NC(=O)CCCCCCCNC(=O)[C@@H](CCCCN)NC(=O)CCCCCNC(=O)[C@H]1O[C@@H](n2cnc3c(N)ncnc32)[C@H](O)[C@@H]1O)C(N)=O | 0.0095
– | – | – | NC(=O)CCCNC(=O)OC[C@H]1O[C@@H](n2cnc3c(N)ncnc32)[C@H](O)[C@@H]1O | 98.7
– | – | – | NCCCCNC(=O)CCCCCNC(=O)[C@H]1O[C@@H](n2cnc3c(N)ncnc32)[C@H](O)[C@@H]1O | 1.64
– | – | – | Nc1ncnc2c1ncn2[C@@H]1O[C@H](C(=O)NCCCCCC(=O)O)[C@@H](O)[C@H]1O | 55.8
– | – | – | NCCCNC(=O)CCCCCNC(=O)[C@H]1O[C@@H](n2cnc3c(N)ncnc32)[C@H](O)[C@@H]1O | 6.05
0.0211 | 2.04 | 0.187 | C[C@@H](NC(=O)CCCCCNC(=O)[C@@H]1C[C@@H](O)[C@H](n2cnc3c(N)ncnc32)C1)C(=O)NCCCCCC(=O)N[C@H](CCCNC(=N)N)C(=O)N[C@H](CCCNC(=N)N)C(N)=O | 0.0018
– | – | – | NCCCC[C@@H](NC(=O)CCCCCNC(=O)[C@H]1O[C@@H](n2cnc3c(N)ncnc32)[C@H](O)[C@@H]1O)C(=O)NCCCC(=O)N[C@H](CCCN=C(N)N)C(=O)N[C@H](CCCN=C(N)N)C(N)=O | 0.0126
0.097 | 3.75 | 0.119 | C[C@@H](NC(=O)CCCCCNC(=O)[C@H]1O[C@@H](n2cnc3c(N)ncnc32)[C@H](O)[C@@H]1O)C(=O)NCCCCCC(=O)N[C@H](CCCN=C(N)N)C(=O)N[C@H](CCCN=C(N)N)C(N)=O | 0.0058
– | – | – | NCCCC[C@@H](NC(=O)CCCCCNC(=O)[C@H]1O[C@@H](n2cnc3c(N)ncnc32)[C@H](O)[C@@H]1O)C(=O)NCCCCCC(=O)N[C@@H](CCCN=C(N)N)C(=O)N[C@@H](CCCN=C(N)N)C(N)=O | 0.0087
– | – | – | NC(=O)[C@@H](CCCN=C(N)N)NC(=O)[C@@H](CCCN=C(N)N)NC(=O)CCCCCCCNC(=O)CCCCCNC(=O)[C@H]1O[C@@H](n2cnc3c(N)ncnc32)[C@H](O)[C@@H]1O | 0.0954
– | – | – | Nc1ncnc2c1ncn2[C@@H]1O[C@H](C(=O)NCCCCCC(=O)NCCO)[C@@H](O)[C@H]1O | 18.7
– | – | – | NC(=O)CCCCCNC(=O)OC[C@H]1O[C@@H](n2cnc3c(N)ncnc32)[C@H](O)[C@@H]1O | 52.1
– | – | – | Nc1ncnc2c1ncn2[C@@H]1O[C@H](C(=O)NCCCCCC(=O)NCc2ccccc2)[C@@H](O)[C@H]1O | 13.5
– | – | – | NCCNC(=O)CCCCCNC(=O)[C@H]1O[C@@H](n2cnc3c(N)ncnc32)[C@H](O)[C@@H]1O | 8.23
– | – | – | NCCCC[C@@H](NC(=O)CCCCCNC(=O)[C@H]1O[C@@H](n2cnc3c(N)ncnc32)[C@H](O)[C@@H]1O)C(N)=O | 0.443
0.0134 | 0.0566 | < 0.001 | NCCCC[C@@H](NC(=O)CCCCCNC(=O)[C@H]1O[C@@H](n2cnc3c(N)ncnc32)[C@H](O)[C@@H]1O)C(=O)NCCCCCC(=O)N[C@H](CCCN=C(N)N)C(=O)N[C@H](CCCN=C(N)N)C(=O)N[C@H](CCCN=C(N)N)C(=O)N[C@H](CCCN=C(N)N)C(N)=O | 0.0005

Structure (SMILES) | IC50 [1] [µM] | IC50 [2] [µM] | Kd [4] [µM] | Kd [3] [µM]
NC(=O)[C@@H](CCCN=C(N)N)NC(=O)[C@@H](CCCN=C(N)N)NC(=O)CCCCCNC(=O)[C@H]1O[C@@H](n2cnc3c(N)ncnc32)[C@H](O)[C@@H]1O | 2.6 | – | – | –
NC(=O)CCCCCNC(=O)[C@H]1O[C@@H](n2cnc3c(N)ncnc32)[C@H](O)[C@@H]1O | 26 | > 1000 | 4.48 | 2.18
NC(=O)[C@@H](CCCN=C(N)N)NC(=O)CCCCCNC(=O)[C@H]1O[C@@H](n2cnc3c(N)ncnc32)[C@H](O)[C@@H]1O | 2.1 | 1.61 | 0.0897 | 0.249
